# Assays:
# S. aureus ATCC BAA-44 = experiment: Photodynamic activity against MRSA on ex vivo porcine skin; assay type: cell-based, Staphylococcus aureus; settings: 10 μM applied 10 minutes, 15 minutes irradiation, mean of three target areas
# Method: Excised porcine skin was cut into 3(4)×3(4) cm^2 pieces under sterile conditions and incubated in 70% ethanol for 5 minutes to reduce background of colonised bacteria. After three washing steps in PBS, the skin pieces were fixed in petri dishes with Hepes-Agar. The epidermis (stratum corneum) was then inoculated with S. aureus ATCC BAA-44 (˜10^8, Volume: 100 μl) and the skin surface dried under laminar flow cabinet until visible dry. The regions of interest were determined using a “pap” pen (1 cm^2 diameter). A sterile solution of Compound 10 (10 μM) was applied onto the skin for 10 minutes. Post application, the ex vivo porcine skin was placed under the Waldmann light source 236 and illuminated for 15 min (15.2 mW/cm^2, 13.7 J/cm^2). A colony forming unit assay was performed to determine viable bacterial cell number immediately after irradiation using a sterile cotton rod to remove bacteria from the stratum corneum. The sterile cotton rod was moistened in sampling solution (0.1% Tween80 in 0.0075 M phosphate buffer pH 7.9) before swabbing the skin surface (3 times) and vortexed in sampling solution before undertaking serial dilutions to determine the bacterial recovery.
# [1] = system: human dermal fibroblast (NHDF) cells; experiment: Quenching studies using sodium azide and D2O; assay type: cell-based; settings: after illumination
# Method: Triangle/solid line: Compound 10+PBS buffer+light; Squares/solid line: Compound 10+D2O+light; Circles/solid line: Compound 10+sodium azide+light; Triangles/dotted line: Compound 10+PBS buffer w/o light; Squares/dotted line: Compound 10+D2O w/o light; Circles/dotted line: Compound 10+sodium azide w/o light. (n=3, mean±Std).
# Quenching studies using D2O and azide were performed with Compound 10 and light against keratinocytes in vitro. In order to investigate whether phototoxicity of the test compound against NHDF, NHEK and bacteria follows the photo-oxidation type II, sodium azide, a physical quencher of singlet oxygen as well as D2O an enhancer of reactive oxygen species were (Lin et al., 1991, Cancer Res. 51:1109-1116; Moan et al., 1979, Brit. J. Cancer 39:398-407).
# [2] = system: intact and abraded rat skin; experiment: Acute dermal toxicity test (OECD 402); assay type: in vivo; settings: 3.2 mM topical formulation, 24 hours
# Method: The compound was applied to both intact and abraded rat skin for 24 hours.
# [3] = Photostability (photobleaching); assay type: physicochemical; settings: 30 minutes illumination
# Text: A bespoke light source capable of delivering light of an appropriate wavelength (417 nm) was developed to activate the test compounds (Waldmann light source 236). […] It consists of a light box (493 mm length×278 mm width×93.3 mm height) where the samples to be tested are placed on the top surface of the light box and illuminated from below.
# The photostability of the exemplary compounds was investigated using standard photodynamic procedures. […] The solution was illuminated for various periods: 10, 20 and 30 minutes. After each predetermined illumination period, the absorbance at 404 nm corresponding to the maximum absorption peak of the compound was measured. Parallel experiments were undertaken where the absorbance of Compound 10 solutions that had been kept in the dark for the same time periods as the illumination time periods were measured. Over the 30 minutes period of illumination a small loss in the absorbance value at 404 nm was observed (see FIG. 10A).
# The susceptibility of the Compound 10 to photobleaching when subjected to a light at a higher fluence rate (150 mW/cm^2; i.e. ten times that used normally) was investigated. With this illumination system, the solution was kept in a quartz cuvette during illumination while an equivalent solution was kept in the dark.
compound,measurement,setting,value
"C[N+](C)(C)CCCOc1ccc(-c2c3nc(cc4ccc([nH]4)c(-c4ccc(OCCC[N+](C)(C)C)cc4)c4nc(cc5ccc2[nH]5)C=C4)C=C3)cc1.[Cl-].[Cl-] [Compound 10, 5,15-bis-[4-(3-Trimethylammonio-propyloxy)-phenyl]-porphyrin dichloride]",growth reduction,S. aureus ATCC BAA-44,3.2 log10
same,cell viability on addition of D2O,[1]; D2O,dramatic decrease
same,Cell killing in the presence of sodium azide,[1]; sodium azide (50 mM),reduced
same,Histological toxicology,[2],No Histological toxicology of any major organ (including the skin) was observed
same,acute toxic or allergic effect,[2],does not result in any acute toxic or allergic effect
same,clinical toxicology,[2],no clinical toxicology was observed
same,loss in the absorbance value at 404 nm,"[3]; 10 μM in phosphate-buffered saline/ethanol, blue light 15 mW/cm^2",small loss
same,reduction of absorbance caused by photobleaching,"[3]; 10 μM, 150 mW/cm^2",15-20%
